# In ChEMBL document CHEMBL1201862, “PubChem BioAssay data set” (2004):
#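 Grown in 96-well plates, cells were treated for 48 hours with each compound at five concentrations. Insufficient inhibition: endpoint recorded as highest concentration tested. Here, GI50 denotes the concentration required for 50% inhibition of growth.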 The source made the active and inactive calls. No stated cut-off is given here; in the data, active = GI50 up to about 1.1 µM and inactive = higher.
# Key:
# Experiment in all cases: NCI anticancer screen, dose series, 48 h
# [1] = tested on: DU-145
# [2] = tested on: ACHN
# [3] = tested on: MOLT-4
# [4] = tested on: SF-268
# [5] = tested on: NCI/ADR-RES
# [6] = tested on: SNB-75
# [7] = tested on: T47D
# [8] = tested on: KM12
# [9] = tested on: TK-10
# [10] = tested on: HT-29
# [11] = tested on: A498
# [12] = tested on: SW-620
# [13] = tested on: HOP-92
# [14] = tested on: SK-MEL-5
# [15] = tested on: RXF 393
# [16] = tested on: UO-31
# [17] = tested on: OVCAR-4
# [18] = tested on: OVCAR-3
# [19] = tested on: U-251
# [20] = tested on: HL-60
Compound,GI50 [1],GI50 [2],GI50 [3],GI50 [4],GI50 [5],GI50 [6],GI50 [7],GI50 [8],GI50 [9],GI50 [10],GI50 [11],GI50 [12],GI50 [13],GI50 [14],GI50 [15],GI50 [16],GI50 [17],GI50 [18],GI50 [19],GI50 [20]
CC(C)(C)OC(=O)NCCC1CN(C(=O)c2ccccc2)c2ccccc21 (centres undefined),45.8 µM (inactive),32.7 µM (inactive),22.1 µM (inactive),41.3 µM (inactive),22.1 µM (inactive),28.7 µM (inactive),25.2 µM (inactive),31.5 µM (inactive),56.2 µM (inactive),23.2 µM (inactive),> 100 µM (inactive),34.2 µM (inactive),26.5 µM (inactive),16.4 µM (inactive),28 µM (inactive),23.7 µM (inactive),36.9 µM (inactive),15.9 µM (inactive),40 µM (inactive),
CCN(CC)CCOc1ccc(N2C(=O)c3cc(OC)c(OC)cc3C2=O)cc1,> 100 µM (inactive),> 100 µM (inactive),> 100 µM (inactive),> 100 µM (inactive),> 100 µM (inactive),,> 100 µM (inactive),> 100 µM (inactive),> 100 µM (inactive),> 100 µM (inactive),> 100 µM (inactive),> 100 µM (inactive),> 100 µM (inactive),> 100 µM (inactive),> 100 µM (inactive),,> 100 µM (inactive),> 100 µM (inactive),> 100 µM (inactive),> 100 µM (inactive)
Nc1nc(N)c2ncn(Cc3c(Cl)cccc3Cl)c2n1,> 100 µM (inactive),> 100 µM (inactive),> 100 µM (inactive),> 100 µM (inactive),50.5 µM (inactive),1.6 µM (inactive),> 100 µM (inactive),> 100 µM (inactive),> 100 µM (inactive),> 100 µM (inactive),> 100 µM (inactive),> 100 µM (inactive),> 100 µM (inactive),> 100 µM (inactive),> 100 µM (inactive),> 100 µM (inactive),> 100 µM (inactive),> 100 µM (inactive),> 100 µM (inactive),
CC(C)n1c2c(c3ccccc3c1=O)C(=O)c1ccccc1-2,> 100 µM (inactive),,> 100 µM (inactive),> 100 µM (inactive),> 100 µM (inactive),> 100 µM (inactive),> 100 µM (inactive),> 100 µM (inactive),> 100 µM (inactive),> 100 µM (inactive),> 100 µM (inactive),> 100 µM (inactive),> 100 µM (inactive),> 100 µM (inactive),,> 100 µM (inactive),50.5 µM (inactive),> 100 µM (inactive),> 100 µM (inactive),> 100 µM (inactive)
Cc1ccc(S(=O)(=O)n2cc(/C=C/C#N)c(-c3cn(S(=O)(=O)c4ccc(C)cc4)cc3-c3cn(S(=O)(=O)c4ccc(C)cc4)cc3/C=C/C#N)c2)cc1,> 100 µM (inactive),> 100 µM (inactive),,> 100 µM (inactive),> 100 µM (inactive),> 100 µM (inactive),> 100 µM (inactive),91.6 µM (inactive),40.4 µM (inactive),> 100 µM (inactive),> 100 µM (inactive),,43.6 µM (inactive),> 100 µM (inactive),,38.4 µM (inactive),> 100 µM (inactive),> 100 µM (inactive),,
CC(C)(C)OC(=O)N1C(=O)OC[C@@H]2C=C[C@@H]21,> 100 µM (inactive),> 100 µM (inactive),> 100 µM (inactive),> 100 µM (inactive),> 100 µM (inactive),,> 100 µM (inactive),> 100 µM (inactive),> 100 µM (inactive),> 100 µM (inactive),> 100 µM (inactive),> 100 µM (inactive),> 100 µM (inactive),> 100 µM (inactive),> 100 µM (inactive),,> 100 µM (inactive),> 100 µM (inactive),> 100 µM (inactive),> 100 µM (inactive)
[N-]=[N+]=CC(=O)OCC1NC(=O)C(COC(=O)C=[N+]=[N-])NC1=O (centres undefined),> 100 µM (inactive),> 100 µM (inactive),> 100 µM (inactive),> 100 µM (inactive),> 100 µM (inactive),> 100 µM (inactive),> 100 µM (inactive),> 100 µM (inactive),> 100 µM (inactive),> 100 µM (inactive),> 100 µM (inactive),> 100 µM (inactive),> 100 µM (inactive),,,> 100 µM (inactive),> 100 µM (inactive),> 100 µM (inactive),> 100 µM (inactive),> 100 µM (inactive)
C=CCN1C(=O)C=C(c2ccccc2)n2ncc3cccc1c32,> 100 µM (inactive),> 100 µM (inactive),> 100 µM (inactive),> 100 µM (inactive),> 100 µM (inactive),,18.2 µM (inactive),47.8 µM (inactive),> 100 µM (inactive),69.2 µM (inactive),44.3 µM (inactive),> 100 µM (inactive),27.7 µM (inactive),81.5 µM (inactive),,> 100 µM (inactive),,> 100 µM (inactive),> 100 µM (inactive),> 100 µM (inactive)
O=S(=O)(O)c1ccc2c(/N=N/c3ccc(Cl)cc3)c(O)ccc2c1,> 100 µM (inactive),> 100 µM (inactive),> 100 µM (inactive),> 100 µM (inactive),> 100 µM (inactive),> 100 µM (inactive),89.3 µM (inactive),> 100 µM (inactive),> 100 µM (inactive),> 100 µM (inactive),> 100 µM (inactive),> 100 µM (inactive),> 100 µM (inactive),> 100 µM (inactive),> 100 µM (inactive),> 100 µM (inactive),> 100 µM (inactive),> 100 µM (inactive),> 100 µM (inactive),
O=C(CN1CCNCCN(CC(=O)N2CCCCC2)CCNCC1)N1CCCCC1,> 100 µM (inactive),> 100 µM (inactive),84.7 µM (inactive),,> 100 µM (inactive),> 100 µM (inactive),> 100 µM (inactive),17.6 µM (inactive),> 100 µM (inactive),18.2 µM (inactive),> 100 µM (inactive),58.2 µM (inactive),> 100 µM (inactive),71.8 µM (inactive),,> 100 µM (inactive),> 100 µM (inactive),> 100 µM (inactive),93.1 µM (inactive),32.2 µM (inactive)
O=C(C[N+]1(c2ccccc2)CCOCC1)c1ccccc1,> 100 µM (inactive),> 100 µM (inactive),30.4 µM (inactive),> 100 µM (inactive),> 100 µM (inactive),> 100 µM (inactive),> 100 µM (inactive),> 100 µM (inactive),> 100 µM (inactive),> 100 µM (inactive),> 100 µM (inactive),,> 100 µM (inactive),> 100 µM (inactive),> 100 µM (inactive),> 100 µM (inactive),> 100 µM (inactive),> 100 µM (inactive),> 100 µM (inactive),
Cc1c(C)c(C)c(Cn2[nH]c(=O)n(C)c2=O)c(C)c1C,> 100 µM (inactive),> 100 µM (inactive),> 100 µM (inactive),> 100 µM (inactive),> 100 µM (inactive),> 100 µM (inactive),> 100 µM (inactive),> 100 µM (inactive),> 100 µM (inactive),> 100 µM (inactive),> 100 µM (inactive),> 100 µM (inactive),> 100 µM (inactive),> 100 µM (inactive),,> 100 µM (inactive),,,> 100 µM (inactive),> 100 µM (inactive)
Clc1ccc(OCc2nn3c(CCc4nnc5sc(COc6ccc(Cl)cc6)nn45)nnc3s2)cc1,19.1 µM (inactive),15.1 µM (inactive),6.62 µM (inactive),5.61 µM (inactive),8.15 µM (inactive),,22.4 µM (inactive),18 µM (inactive),26.4 µM (inactive),27.8 µM (inactive),11.9 µM (inactive),25.2 µM (inactive),,11.1 µM (inactive),23.8 µM (inactive),1.53 µM (inactive),14.7 µM (inactive),16 µM (inactive),20.7 µM (inactive),18.8 µM (inactive)
O=C(NC(=O)c1cc(-c2ccccc2)n[nH]1)c1ccccc1,> 100 µM (inactive),> 100 µM (inactive),> 100 µM (inactive),> 100 µM (inactive),> 100 µM (inactive),26.5 µM (inactive),> 100 µM (inactive),> 100 µM (inactive),> 100 µM (inactive),> 100 µM (inactive),> 100 µM (inactive),> 100 µM (inactive),> 100 µM (inactive),> 100 µM (inactive),> 100 µM (inactive),> 100 µM (inactive),> 100 µM (inactive),> 100 µM (inactive),> 100 µM (inactive),
COc1nc(-c2c[nH]c3ccccc23)cnc1N,23.4 µM (inactive),14.2 µM (inactive),2.56 µM (inactive),23.6 µM (inactive),38.5 µM (inactive),,1.56 µM (inactive),9.18 µM (inactive),> 100 µM (inactive),19.3 µM (inactive),15.1 µM (inactive),32.6 µM (inactive),0.0306 µM (active),37.9 µM (inactive),,21.2 µM (inactive),29.6 µM (inactive),39.6 µM (inactive),31 µM (inactive),4.85 µM (inactive)
